Test systems include T-47D breast; K-562 leukemia; UACC-257 melanoma; HCC-2998 colon; A549 NSCLC; MDA-MB-231 breast; MOLT-4 leukemia; LOX IMVI melanoma; OVCAR-4 ovarian; HS 578T breast.
Test in all cases: NCI tumour cell line growth inhibition, 48 h

Molecules are shown by their SMILES. Where “and” joins values, the source holds several entries; their conditions need not be identical. Identical values can stand only once.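 A five-concentration, 48-hour dose response in 96-well plates underlies each endpoint, interpolated linearly between surrounding concentrations. GI50: concentration for 50% inhibition of growth. TGI denotes the concentration required for complete inhibition of growth.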 Some results are limits rather than exact numbers.

Turning to `COc1cc(-c2ncn(/C=C\C(=O)OC(C)C)n2)cc(C(F)(F)F)c1`, the GI50 with T-47D breast is 0.12 µM and 0.0666 µM; with K-562 leukemia, 0.051 µM and 0.0608 µM; with UACC-257 melanoma it was 0.142 µM and 0.136 µM; with HCC-2998 colon, 0.102 µM and 0.659 µM; in the assay with A549 NSCLC, 0.0609 µM and 0.0783 µM; with MDA-MB-231 breast it was 0.065 µM and 0.0398 µM. Further, the GI50 with MOLT-4 leukemia was 0.0302 µM and 0.0282 µM; in the assay with LOX IMVI melanoma, 0.0271 µM and 0.0287 µM; in the assay with OVCAR-4 ovarian, 0.0684 µM and 0.0407 µM; in the assay on HS 578T breast, 0.254 µM and 0.243 µM. Besides, the TGI in the assay on T-47D breast was 15 µM and 12 µM; in the assay on K-562 leukemia, 10.2 µM and 16.2 µM; in the assay with UACC-257 melanoma, 11.8 µM and 14.4 µM; in the assay on HCC-2998 colon, 1.41 µM and 3.82 µM; with A549 NSCLC it was 11.6 µM and 8.63 µM; in the assay with MDA-MB-231 breast, 4.81 µM and 7.12 µM. Further, the TGI was 0.39 µM and 0.524 µM with LOX IMVI melanoma; 4.18 µM and 9.49 µM with OVCAR-4 ovarian; > 65.9 µM and 6.71 µM with HS 578T breast.
With `COc1ccc(OC)c(-c2cc(=O)c3c(OC)c(OC)c(OC)c(OC)c3o2)c1`, the TGI in the assay with T-47D breast was 21.3 µM; in the assay with K-562 leukemia, greater than 100 µM; with UACC-257 melanoma, greater than 100 µM; in the assay on HCC-2998 colon it was 92.1 µM; in the assay on A549 NSCLC, greater than 100 µM; with MDA-MB-231 breast, greater than 100 µM. The TGI in the assay on MOLT-4 leukemia is 63.2 µM; in the assay with LOX IMVI melanoma, 76.1 µM; in the assay on OVCAR-4 ovarian, 88.7 µM; in the assay on HS 578T breast it was greater than 100 µM.
Consider `O=C(NO)c1ccc(Cn2c(=O)n(-c3ccccc3F)c(=O)c3ccccc32)cc1`, for which the GI50 in the assay on T-47D breast was 1.38 µM; with K-562 leukemia, 2.62 µM; in the assay on UACC-257 melanoma, 1.25 µM; in the assay on HCC-2998 colon, 1.42 µM; in the assay with A549 NSCLC it was 2.74 µM; in the assay on MDA-MB-231 breast, 3.03 µM. In addition, the GI50 was 2.34 µM in the assay with MOLT-4 leukemia, 1.71 µM in the assay on LOX IMVI melanoma, 1.9 µM with OVCAR-4 ovarian and 1.9 µM in the assay with HS 578T breast. Moreover, the TGI in the assay with T-47D breast is 5.92 µM; in the assay with K-562 leukemia it was greater than 100 µM; with UACC-257 melanoma, 3.22 µM; in the assay with HCC-2998 colon, 2.96 µM; in the assay with A549 NSCLC, 7.83 µM; with MDA-MB-231 breast, 7.89 µM. Further, the TGI was greater than 100 µM in the assay with MOLT-4 leukemia, 3.2 µM in the assay with LOX IMVI melanoma, 12.9 µM in the assay with OVCAR-4 ovarian and 11.9 µM in the assay with HS 578T breast.
On to `CC[C@@]1(O)C(=O)OCc2c1cc1n(c2=O)Cc2c-1nc1cc3c(cc1c2C)OCO3`, for which the GI50 is less than 0.0001 µM with T-47D breast; 0.000488 µM with K-562 leukemia; 0.0159 µM in the assay with UACC-257 melanoma; 0.00109 µM in the assay with HCC-2998 colon; less than 0.0001 µM in the assay on A549 NSCLC; 0.0147 µM in the assay with MDA-MB-231 breast. Moreover, the GI50 in the assay with MOLT-4 leukemia is less than 0.0001 µM; in the assay with LOX IMVI melanoma, less than 0.0001 µM; with OVCAR-4 ovarian it was 0.0244 µM and 0.0174 µM; in the assay on HS 578T breast, 37.4 µM. In addition, the TGI is greater than 100 µM in the assay on K-562 leukemia; 0.278 µM in the assay on UACC-257 melanoma; 0.0837 µM and 0.141 µM with HCC-2998 colon; 0.0737 µM in the assay on A549 NSCLC; greater than 100 µM with MDA-MB-231 breast; 0.0319 µM and 0.0306 µM in the assay on LOX IMVI melanoma. The TGI with OVCAR-4 ovarian and in the assay with HS 578T breast was greater than 100 µM each time.
Regarding `CCc1cc2c(cc1N1CCC(N3CCOCC3)CC1)C(C)(C)c1[nH]c3cc(C#N)ccc3c1C2=O`, the GI50 in the assay with T-47D breast is 2.2 µM and 1.94 µM and 2.18 µM; in the assay on K-562 leukemia it was 3.76 µM and 2.12 µM and 1.94 µM; in the assay with UACC-257 melanoma it was 2.3 µM and 3.2 µM; with HCC-2998 colon, 4.33 µM and 3.73 µM; in the assay on A549 NSCLC, 1.36 µM and 1.51 µM and 1.31 µM; with MDA-MB-231 breast, 1.53 µM and 1.71 µM and 2.11 µM. Besides, the GI50 in the assay with MOLT-4 leukemia was 1.57 µM and 0.973 µM and 1.38 µM; in the assay with LOX IMVI melanoma, 1.63 µM and 1.73 µM and 1.52 µM; in the assay with OVCAR-4 ovarian, 0.648 µM and 1.35 µM and 1.63 µM; in the assay on HS 578T breast it was 1.21 µM and 1.51 µM and 0.53 µM. For the same compound, the TGI in the assay with T-47D breast is 10.9 µM and 5.32 µM and > 10 µM; with K-562 leukemia, > 41.9 µM and 13.9 µM and > 10 µM; with UACC-257 melanoma, 21.1 µM and 25.9 µM and > 10 µM; in the assay with HCC-2998 colon it was > 43.7 µM and 17.8 µM and > 10 µM; in the assay on A549 NSCLC it was 3.05 µM and 3.88 µM and 3.67 µM; in the assay with MDA-MB-231 breast it was 5.21 µM and 4.65 µM and 6.37 µM. Moreover, the TGI in the assay on MOLT-4 leukemia is > 100 µM and 14.7 µM and > 10 µM; in the assay with LOX IMVI melanoma it was 6.38 µM and 5.47 µM and 4.19 µM; in the assay with OVCAR-4 ovarian it was 2.26 µM and 2.86 µM and 3.59 µM; in the assay on HS 578T breast it was 4.88 µM and 5.56 µM and 4.22 µM.
As to `CCOC(=O)C(C)(C)C(O)C(C)C` (centres undefined), the TGI with T-47D breast, with K-562 leukemia, with UACC-257 melanoma, with HCC-2998 colon, with A549 NSCLC and in the assay on MDA-MB-231 breast was greater than 100 µM throughout. Further, the TGI in the assay on MOLT-4 leukemia, in the assay on LOX IMVI melanoma, in the assay on OVCAR-4 ovarian and with HS 578T breast was greater than 100 µM in each case.
As to `COc1cc(O)c2c(c1)C(=O)c1cc3c(c(O)c1C2=O)C(OC1OC(C)C(O)C(O)C1OC)C(OC)C(C)(O)C3=O` (centres undefined), the GI50 with T-47D breast was 3.12 µM; with K-562 leukemia, 2.24 µM and 12.2 µM; in the assay on UACC-257 melanoma, 1.98 µM; with HCC-2998 colon, 2.22 µM; in the assay with MDA-MB-231 breast it was 2.66 µM; in the assay with MOLT-4 leukemia it was 3.21 µM and 5.19 µM. Moreover, the GI50 was 1.67 µM in the assay with LOX IMVI melanoma, 1.7 µM in the assay with OVCAR-4 ovarian and 3.34 µM in the assay on HS 578T breast. Besides, the TGI in the assay on T-47D breast was 9.21 µM; in the assay with K-562 leukemia it was > 100 µM and 72.5 µM; in the assay with UACC-257 melanoma it was 5.25 µM and 2.5 µM; with HCC-2998 colon, 5.14 µM and 12.4 µM; in the assay with A549 NSCLC it was 12 µM; in the assay with MDA-MB-231 breast, 9.2 µM. Also, the TGI was 11.7 µM and 17.3 µM with MOLT-4 leukemia; 4.91 µM and 7.1 µM with LOX IMVI melanoma; 8.04 µM and 2.64 µM in the assay with OVCAR-4 ovarian; 19.5 µM in the assay on HS 578T breast.
Turning to `CCCCCCCCCCCCCCCCOP(=O)(O)OP(=O)(O)OCC1OC(n2ccc(N)nc2=O)C(O)C1O` (centres undefined), the TGI with T-47D breast, in the assay with K-562 leukemia, in the assay with UACC-257 melanoma, in the assay on HCC-2998 colon, in the assay on A549 NSCLC and in the assay on MDA-MB-231 breast was greater than 100 µM throughout. The TGI with MOLT-4 leukemia, in the assay with LOX IMVI melanoma, in the assay on OVCAR-4 ovarian and with HS 578T breast was greater than 100 µM throughout. Also, the GI50 in the assay on K-562 leukemia was > 100 µM and 41.8 µM; with HCC-2998 colon it was > 100 µM and 36.8 µM; in the assay with LOX IMVI melanoma it was > 100 µM and 28.3 µM.

The values are drawn from PubChem BioAssay (NCI).
